For 24 molecules, IC50 results are on record in patent US7709471B2, “Compounds” (AstraZeneca AB, priority 2006, dated 2010).

For orientation: IC50 means the midpoint of a concentration-inhibition curve.

For one test, the target named is recombinant Plk1 (Homo sapiens, UniProt P53350). As to the kind of experiment: In Vitro Plk1 Enzyme Assay (SPA, GST-Cdc25C phosphorylation). The format is biochemical. To be noted: ATP 64 nM, 90 minutes, read-out: IC50 (Plk1 enzyme inhibition).
Test [1] deals with human colon tumour cell line HT29. As to the kind of experiment: Cellular Assay (phosphohistone H3 Ser10 mitotic marker, HT29). To be noted: HT-29, 24 h, HT29 cells, read-out: IC50 (cellular assay, phosphohistone H3). The class given is cell-based.
Procedure: Chromosome condensation in mitosis is accompanied by phosphorylation of histone H3 on serine 10.
After 24 hours, cells were fixed in 3.7% (v/v) formaldehyde then permeabilised and blocked for 10 minutes in 100 μl 0.5% (v/v) Triton X-100, 1% (w/v) bovine serum albumin (BSA) in phosphate buffered saline (PBS). […] The raw assay data were analysed by non-linear regression analysis and used to determine an IC50 value for each compound.

recombinant Plk1, sequence (P53350 whole entry): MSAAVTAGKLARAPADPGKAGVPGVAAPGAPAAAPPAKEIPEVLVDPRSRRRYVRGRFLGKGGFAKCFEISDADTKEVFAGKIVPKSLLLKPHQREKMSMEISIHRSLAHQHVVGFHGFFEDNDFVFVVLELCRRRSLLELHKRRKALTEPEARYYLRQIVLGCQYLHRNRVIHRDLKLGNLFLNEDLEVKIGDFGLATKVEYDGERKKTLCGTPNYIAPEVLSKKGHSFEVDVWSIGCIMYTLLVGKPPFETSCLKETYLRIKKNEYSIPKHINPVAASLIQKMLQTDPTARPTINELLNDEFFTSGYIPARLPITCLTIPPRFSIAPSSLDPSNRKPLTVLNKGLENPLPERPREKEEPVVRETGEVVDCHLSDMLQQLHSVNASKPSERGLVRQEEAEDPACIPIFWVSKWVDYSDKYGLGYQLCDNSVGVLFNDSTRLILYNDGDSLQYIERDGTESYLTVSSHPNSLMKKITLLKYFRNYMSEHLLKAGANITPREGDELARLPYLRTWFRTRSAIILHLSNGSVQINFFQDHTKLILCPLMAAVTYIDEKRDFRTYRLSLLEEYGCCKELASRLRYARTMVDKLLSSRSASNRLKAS

With `COc1cc(C(=O)NCC(C)(C)N2CCCCC2)ccc1Nc1ncc2c(n1)N(C1CCCC1)CCC(=O)N2C` [Example 75, 4-[(6-cyclopentyl-2-methyl-3-oxo-2,6,8,10-tetrazabicyclo[5.4.0]undeca-8,10,12-trien-9-yl)amino]-3-methoxy-N-[2-methyl-2-(1-piperidyl)propyl]benzamide], the IC50 (on recombinant Plk1; in test [1]) was < 300 nM throughout.

Take `CN(C)CC(C)(C)CNC(=O)c1ccc(Nc2ncc3c(n2)N(c2ccccc2)CCC(=O)N3C)cc1` [Example 223, N-(3-dimethylamino-2,2-dimethyl-propyl)-4-[(2-methyl-3-oxo-6-phenyl-2,6,8,10-tetrazabicyclo[5.4.0]undeca-8,10,12-trien-9-yl)amino]benzamide]: the half-inhibitory concentration (IC50) is < 1000 nM at recombinant Plk1 and < 30000 nM in test [1].

On to `COc1cc(C(=O)Nc2ccncc2)ccc1Nc1ncc2c(n1)N(C1CCCC1)CCC(=O)N2C` [Example 67, 4-[(6-cyclopentyl-2-methyl-3-oxo-2,6,8,10-tetrazabicyclo[5.4.0]undeca-8,10,12-trien-9-yl)amino]-3-methoxy-N-pyridin-4-yl-benzamide], for which the IC50 on recombinant Plk1 is < 1000 nM; in test [1] it was < 300 nM.

Consider `CN1CCC(NC(=O)c2ccc(Nc3ncc4c(n3)N(C3CCCC3)CCC(=O)N4C)c(O)c2)CC1` [Example 186, 4-[(6-cyclopentyl-2-methyl-3-oxo-2,6,8,10-tetrazabicyclo[5.4.0]undeca-8,10,12-trien-9-yl)amino]-3-hydroxy-N-(1-methyl-4-piperidyl)benzamide], for which the half-inhibitory concentration (IC50) is < 300 nM at recombinant Plk1 and < 30000 nM in test [1].

Regarding `COc1cc(C(N)=O)ccc1Nc1ncc2c(n1)N(C1CCCC1)CCC(=O)N2C` [Example 92, 4-[(6-cyclopentyl-2-methyl-3-oxo-2,6,8,10-tetrazabicyclo[5.4.0]undeca-8,10,12-trien-9-yl)amino]-3-methoxy-benzamide], the IC50 (at recombinant Plk1; in test [1]) was < 300 nM each time.

As for `COc1cc(C(=O)NCCN2CC3CCC(C2)O3)ccc1Nc1ncc2c(n1)N(C1CCCC1)CCC(=O)N2C` [Example 32, 4-[(6-cyclopentyl-2-methyl-3-oxo-2,6,8,10-tetrazabicyclo[5.4.0]undeca-8,10,12-trien-9-yl)amino]-3-methoxy-N-[2-(8-oxa-3-azabicyclo[3.2.1]oct-3-yl)ethyl]benzamide], the figures for the IC50 (on recombinant Plk1; in test [1]) were < 1000 nM and < 300 nM, respectively.

For the molecule `COc1cc(C(=O)NC2CCN(C)CC2)ccc1Nc1ncc2c(n1)N(C1CCCC1)CC(C)(C)C(=O)N2C` [Example 235, 4-[(2-cyclopentyl-4,4,6-trimethyl-5-oxo-2,6,9,11-tetrazabicyclo[5.4.0]undeca-7,9,11-trien-10-yl)amino]-3-methoxy-N-(1-methyl-4-piperidyl)benzamide], the IC50 (at recombinant Plk1; in test [1]) was < 300 nM each time.

For `CCCN1CCC(NC(=O)c2ccc(Nc3ncc4c(n3)N(C3CCCC3)CCC(=O)N4C)c(OC)c2)CC1` [Example 314, 4-[(2-cyclopentyl-6-methyl-5-oxo-2,6,9,11-tetrazabicyclo[5.4.0]undeca-7,9,11-trien-10-yl)amino]-3-methoxy-N-(1-propyl-4-piperidyl)benzamide], the IC50 (at recombinant Plk1; in test [1]) was < 300 nM each time.

In the case of `CCN1CCC(NC(=O)c2cc(Cl)c(Nc3ncc4c(n3)N(C3CCCC3)CCC(=O)N4C)cc2F)CC1` [Example 323, 5-chloro-4-[(2-cyclopentyl-6-methyl-5-oxo-2,6,9,11-tetrazabicyclo[5.4.0]undeca-7,9,11-trien-10-yl)amino]-N-(1-ethyl-4-piperidyl)-2-fluoro-benzamide], the half-inhibitory concentration (IC50) is < 1000 nM at recombinant Plk1 and < 300 nM in test [1].

On to `COc1cc(C(=O)NCCCN2CCOCC2)ccc1Nc1ncc2c(n1)N(C1CCCC1)CCC(=O)N2C` [Example 25, 4-[(6-cyclopentyl-2-methyl-3-oxo-2,6,8,10-tetrazabicyclo[5.4.0]undeca-8,10,12-trien-9-yl)amino]-3-methoxy-N-(3-morpholin-4-ylpropyl)benzamide], for which the concentration for half-maximal inhibition (IC50) (on recombinant Plk1; in test [1]) was < 300 nM throughout.

Regarding `CN1CC[C@@H](NC(=O)c2cc(Cl)c(Nc3ncc4c(n3)N(C3CCCC3)CCC(=O)N4C)cc2F)C1` [Example 325, 5-chloro-4-[(2-cyclopentyl-6-methyl-5-oxo-2,6,9,11-tetrazabicyclo[5.4.0]undeca-7,9,11-trien-10-yl)amino]-2-fluoro-N-[(3R)-1-methylpyrrolidin-3-yl]benzamide], the IC50 (at recombinant Plk1; in test [1]) was < 300 nM in each case.

Turning to `CN1CCC(NC(=O)c2cnc(Nc3ncc4c(n3)N(C3CCCC3)CCC(=O)N4C)s2)CC1` [Example 263, 2-[(6-cyclopentyl-2-methyl-3-oxo-2,6,8,10-tetrazabicyclo[5.4.0]undeca-8,10,12-trien-9-yl)amino]-N-(1-methyl-4-piperidyl)1,3-thiazole-5-carboxamide], the IC50 is < 100000 nM at recombinant Plk1 and < 30000 nM in test [1].

As to `COc1cc(C(=O)NCC(C)(C)CN(C)C)ccc1Nc1ncc2c(n1)N(C1CCCC1)CC1(CC1)C(=O)N2C` [Example 386, 4-(9′-cyclopentyl-5′-methyl-6′-oxo-5′,6′,8′,9′-tetrahydrospiro[cyclopropane-1,7′-pyrimido[5,4-b][1,4]diazepine]-2′-ylamino)-N-(3-dimethylamino-2,2-dimethyl-propyl)-3-methoxy-benzamide], the half-inhibitory concentration (IC50) (at recombinant Plk1; in test [1]) was < 300 nM throughout.

Consider `COc1cc(C(=O)NCC2(CN3CCCC3)CC2)ccc1Nc1ncc2c(n1)N(C1CCCC1)CCC(=O)N2C` [Example 83, 4-[(6-cyclopentyl-2-methyl-3-oxo-2,6,8,10-tetrazabicyclo[5.4.0]undeca-8,10,12-trien-9-yl)amino]-3-methoxy-N-[[1-(pyrrolidin-1-ylmethyl)cyclopropyl]methyl]benzamide], for which the IC50 (at recombinant Plk1; in test [1]) was < 300 nM in each case.

Take `CN1CCC(NC(=O)c2cnc(Nc3ncc4c(n3)N(C3CCCC3)CCC(=O)N4C)o2)CC1` [Example 264, 2-[(6-cyclopentyl-2-methyl-3-oxo-2,6,8,10-tetrazabicyclo[5.4.0]undeca-8,10,12-trien-9-yl)amino]-N-(1-methyl-4-piperidyl)1,3-oxazole-5-carboxamide]: the IC50 is < 100000 nM at recombinant Plk1 and < 30000 nM in test [1].

`CCN1CCC(NC(=O)c2ccc(Nc3ncc4c(n3)N(C3CCCC3)CCC(=O)N4C)c(Cl)c2)CC1` [Example 316, 3-chloro-4-[(2-cyclopentyl-6-methyl-5-oxo-2,6,9,11-tetrazabicyclo[5.4.0]undeca-7,9,11-trien-10-yl)amino]-N-(1-ethyl-4-piperidyl)benzamide]: the IC50 (at recombinant Plk1; in test [1]) was < 300 nM each time.

In the case of `COc1cc(C(=O)NCCCN2CCCCC2)ccc1Nc1ncc2c(n1)N(C1CCCC1)CCC(=O)N2C` [Example 69, 4-[(6-cyclopentyl-2-methyl-3-oxo-2,6,8,10-tetrazabicyclo[5.4.0]undeca-8,10,12-trien-9-yl)amino]-3-methoxy-N-[3-(1-piperidyl)propyl]benzamide], the IC50 (on recombinant Plk1; in test [1]) was < 300 nM throughout.

Regarding `COc1cc(C(=O)NCC2CC2)ccc1Nc1ncc2c(n1)N(C1CCCC1)CCC(=O)N2C` [Example 94, 4-[(6-cyclopentyl-2-methyl-3-oxo-2,6,8,10-tetrazabicyclo[5.4.0]undeca-8,10,12-trien-9-yl)amino]-N-(cyclopropylmethyl)-3-methoxy-benzamide], the 50% inhibitory concentration (IC50) was < 100000 nM at recombinant Plk1 and < 300 nM in test [1].

For the molecule `CCOc1cc(C(=O)NC2CCN(C)CC2)ccc1Nc1ncc2c(n1)N(C1CCCC1)CCC(=O)N2C` [Example 200, 4-[(6-cyclopentyl-2-methyl-3-oxo-2,6,8,10-tetrazabicyclo[5.4.0]undeca-8,10,12-trien-9-yl)amino]-3-ethoxy-N-(1-methyl-4-piperidyl)benzamide], the IC50 was < 1000 nM at recombinant Plk1 and < 300 nM in test [1].

As to `COc1cc(C(=O)NC2CCN(C)CC2)ccc1Nc1ncc2c(n1)N(C(C)C)CCC(=O)N2C` [Example 6, 3-Methoxy-4-[(6-methyl-5-oxo-2-propan-2-yl-2,6,9,11-tetrazabicyclo[5.4.0]undeca-7,9,11-trien-10-yl)amino]-N-(1-methyl-4-piperidyl)benzamide], the half-inhibitory concentration (IC50) (at recombinant Plk1; in test [1]) was < 300 nM throughout.

Consider `COc1cc(C(=O)NC(C)(C)CN2CCCC2)ccc1Nc1ncc2c(n1)N(C1CCCC1)CCC(=O)N2C` [Example 81, 4-[(6-cyclopentyl-2-methyl-3-oxo-2,6,8,10-tetrazabicyclo[5.4.0]undeca-8,10,12-trien-9-yl)amino]-3-methoxy-N-(2-methyl-1-pyrrolidin-1-yl-propan-2-yl)benzamide], for which the IC50 at recombinant Plk1 is < 1000 nM; in test [1], < 300 nM.

For the molecule `COc1cc(C(=O)NCCCCn2ccnc2)ccc1Nc1ncc2c(n1)N(C1CCCC1)CCC(=O)N2C` [Example 31, 4-[(6-cyclopentyl-2-methyl-3-oxo-2,6,8,10-tetrazabicyclo[5.4.0]undeca-8,10,12-trien-9-yl)amino]-N-(4-imidazol-1-ylbutyl)-3-methoxy-benzamide], the half-inhibitory concentration (IC50) on recombinant Plk1 is < 1000 nM; in test [1], < 300 nM.

For `CN1C(=O)CCN(C2CCCC2)c2nc(Nc3ccc(S(N)(=O)=O)cc3)ncc21` [Example 123, 4-[(6-cyclopentyl-2-methyl-3-oxo-2,6,8,10-tetrazabicyclo[5.4.0]undeca-8,10,12-trien-9-yl)amino]benzenesulfonamide], the IC50 at recombinant Plk1 was < 100000 nM; in test [1], < 30000 nM.

For the molecule `COc1cc(C(=O)N[C@H]2C[C@H]3CCC[C@@H](C2)N3C)ccc1Nc1ncc2c(n1)N(C1CCCC1)CCC(=O)N2C` [Example 59, 4-[(6-cyclopentyl-2-methyl-3-oxo-2,6,8,10-tetrazabicyclo[5.4.0]undeca-8,10,12-trien-9-yl)amino]-3-methoxy-N-[(1S,5R)-9-methyl-9-azabicyclo[3.3.1]non-7-yl]benzamide], the half-maximal inhibitory concentration (IC50) (at recombinant Plk1; in test [1]) was < 300 nM throughout.
